In PMC4703387, “Identification of the Calmodulin-Binding Domains of Fas Death Receptor” (PLoS ONE, 2016):
Where no end group is shown, it is not given here.

What was measured:
Format in all cases: binding
[1] = biological target: T1, Ca^2+/CaM (Homo sapiens, UniProt P0DP23); test: NMR titration (2D 1H-15N HSQC) of 15N-labeled Ca^2+/CaM with FasDD peptides; conditions: 1H-15N HSQC, 15N-Ca^2+/CaM 100–150 μM, 35°C, pH 7.0
T1 construct: made in house
Method: (§1) NMR data were collected at 35°C on a Bruker Avance II (700 MHz ^1H) spectrometer equipped with a cryogenic triple-resonance probe, processed with NMRPIPE [35] and analyzed with NMRVIEW [36] or CCPN Analysis. […] For signal assignments of the complexes, ^13C-, ^15N-, or ^13C-/^15N-labeled Ca^2+/CaM at ~400–500 μM was mixed with unlabeled Fas-Pep1 (in 100% DMSO-d6) or Fas-Pep2 at 1.5:1 peptide:Ca^2+/CaM. […] The backbone atom resonances of Ca^2+/CaM complexes with Fas-Pep1 and Fas-Pep2 were assigned using HNCA, HN(CO)CA, HNCACB, HNCO, HN(CO)CACB and ^15N-edited NOESY-HSQC and TOCSY-HSQC experiments. These experiments have been also collected on ^15N-, or ^13C-/^15N-labeled Fas-Pep2 in complex with unlabeled Ca^2+/CaM to confirm the α-helical character of Fas-Pep2 when bound to Ca^2+/CaM. The chemical shifts of Ca^2+/CaM-bound Fas-Pep2 were used to predict its order parameters and secondary structure content in TALOS+.[38] Combined ^1H-^15N chemical shift changes were calculated as ΔδHN = [(ΔδH)^2+(ΔδN/5)^2]^1/2, where ΔδH and ΔδN are the ^1H and ^15N chemical shift changes, respectively. Kd values were calculated by non-linear least-square fitting algorithm in Origin software (OriginLab, Northampton, MA) using the equation: ΔδHN=ΔδHN^max((Kd+L0+P0)−((Kd+L0+P0)^2−4*P0*L0)^0.5)/(2*P0) where ΔδHN^max is the chemical shift change between complex and free protein, L0 total concentration of ligand, and P0 total concentration of protein.
To gain insights into the molecular elements of Ca^2+/CaM–FasDD interaction and to identify the interaction interface, we have utilized NMR chemical shift perturbation (CSP) as detected in ^1H-^15N heteronuclear single quantum coherence (HSQC) spectra. These experiments not only allow for identification of residues involved in binding but can also provide information on the induced conformational changes within proteins. 2D ^1H-^15N HSQC data obtained for a uniformly ^15N-labeled Ca^2+/CaM upon titration with unlabeled Fas-Pep1 are shown in Fig 5. Addition of substoichiometric amounts of Fas-Pep1 (0.5:1 peptide:Ca^2+/CaM) led to a decrease in intensity for a significant number of ^1H-^15N resonances accompanied by appearance of several new signals, consistent with a slow exchange on the NMR scale between the free and bound forms of Ca^2+/CaM. A steady decrease in intensity for the original ^1H-^15N signals and increase in intensity of the new signals was clearly observed with further addition of Fas-Pep1. Spectral changes ceased upon completion of peptide titration at 1.5:1 Fas-Pep1:Ca^2+/CaM ratio when only the new set of signals was present (Fig 5). […]
Only residues 214–227 have been detected in the x-ray structure of Ca^2+/CaM bound to FasDD(214–238); no electron density has been detected for residues 228–238.[40] […]

[2] = biological target: T1, Ca^2+/CaM; test: Isothermal titration calorimetry (ITC), Ca^2+/CaM titrated into peptide
Method: Thermodynamic parameters of Ca^2+/CaM binding to Fas-Pep1 and Fas-Pep2 peptides were determined using an Auto-iTC200 microcalorimeter (Malvern Instruments). […] Heat of reaction of Ca^2+/CaM was measured over 19 injections at 25°C for Fas-Pep1 or 35°C for Fas-Pep2. Heat of dilution was measured by titrating Ca^2+/CaM into buffer. Data analysis was performed using the Microcal Origin package (ver. 8.1). Baseline corrections were performed by subtracting heat of dilution from the raw Ca^2+/CaM-peptide titration data. Binding curves were analyzed and dissociation constants (Kd) were determined by nonlinear least-square fitting of the baseline-corrected data. The formula used to fit the data as one binding site is: ΔQ(i)=Q(i)+(dVi/Vo)[(Q(i)+Q(i−1))/2]–Q(i–1) where ΔQ(i) is the heat released at i^th injection, Q(i) is the total heat content of the solution, dVi is injection volume, and Vo is total volume. Three replicate titration experiments were typically performed for each peptide.
Although it is recognized that the most frequent mechanism of CaM binding to target proteins involves the hydrophobic surfaces on the N- and C-terminal lobes,[23] electrostatic interactions also contribute to the formation and stabilization of CaM-protein complexes since CaM is acidic and CaM-binding motifs are often basic.[44, 45] The thermodynamic parameters of binding and the relative contribution of hydrophobic vs. electrostatic factors are often assessed by ITC methods, yielding various parameters such as dissociation constant (Kd), stoichiometry (n), enthalpy change (ΔH°) and entropy change (ΔS°). The thermodynamic parameters of Ca^2+/CaM binding to Fas-Pep1 and Fas-Pep2 were assessed by ITC.

[3] = biological target: T2, Ca^2+/CaM-C (Homo sapiens, UniProt P0DP23); test: NMR titration (2D 1H-15N HSQC) of isolated C-terminal lobe; conditions: 1H-15N HSQC titration
T2 construct: ^15N-labled samples of the isolated Ca^2+/CaM-N and Ca^2+/CaM-C domains; made in house
Method: as §1, with “The chemical shifts of Ca^2+/CaM-bound Fas-Pep2 were used to predict its order parameters and secondary structure content in TALOS+.[38]” left out, “protein. […]” for “protein.”

[4] = as Kd (ITC), 25°C Fas-Pep1, 35°C Fas-Pep2

NMR exchange regime with Ca^2+/CaM [1]: slow exchange
thermodynamic driving force of binding ([2]; ITC): enthalpically driven
n (stoichiometry, ITC) ([2]; as Kd (ITC)): 0.9
ΔH° [2, 4]: -14.2 kcal/mol
ΔS° [2, 4]: -18.8 cal/mol/K
CSPs on Ca^2+/CaM-C [3]: significant CSPs for numerous residues
Sequence: VQDTAEQKVQLLRNWHQLHGKKEAYDTLIKDLKKANLC [Fas-Pep2]
